# Experimental data from article PMC10808970, “Chloroplasts lacking class I glutaredoxins are functional but show a delayed recovery of protein cysteinyl redox state after oxidative challenge” (Redox Biology, 2023).
# Molecular target: T1, PpGRXC5 (Physcomitrium patens, UniProt A0A2K1KTP0)
# T1 construct: gene LOC112280307; targeting peptide removed, starts at Ala120 to native stop; Gateway vector pETG-10A, E. coli Rosetta2; tag not described; active site YCPYC
# T1 sequence (A0A2K1KTP0 120-228): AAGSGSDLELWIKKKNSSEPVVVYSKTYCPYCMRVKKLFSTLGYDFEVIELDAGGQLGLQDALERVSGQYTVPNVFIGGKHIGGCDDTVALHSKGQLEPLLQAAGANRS
# Test: HED assay, GR-coupled NADPH oxidation at […] nm
# Type: biochemical
# Conditions: 0.3-1.5 mM HED varied, 1 mM GSH constant, 200 uM NADPH, yeast GR, 30 nM enzyme, 100 mM Tris-HCl, 1 mM EDTA, pH 7.9; actual substrate is the glutathione-mercaptoethanol mixed disulfide; read-out: Km^app
smiles,measurement,value
"OCCSSCCO [HED, bis(2-hydroxyethyl)disulfide]",Km,390 ± 110 µM
